Results taken from patent US20250195521A1 (Revolution Medicines, Inc., priority 2020, published 2025).

How the values were obtained:
[1] = test system: K-Ras G12C (NCI-H358 cells); assay: Potency assay: pERK in NCI-H358 cells; assay type: cell-based, human; details: Homo sapiens; NCI-H358 cells, 4 hours; read-out: pERK EC50 (H358 KRAS G12C)
Procedure, shortened: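 Cells plated the day before were exposed for 4 h at 37° C, 5% CO2 to a 10-point, 3-fold DMSO dilution series (10 mM top stock), in duplicate. Phospho-ERK was read by AlphaLISA SureFire Ultra or by In-Cell Western with DRAQ5 DNA stain, and IC50 came from a 4-parameter sigmoidal fit.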

[2] = molecular target: KRAS G13D (Homo sapiens (Human), UniProt P01116+P62937, G13D); assay: Ras-Raf disruption/FRET/MOA assay (BRAF RBD, Cyclophilin A); assay type: biochemical; details: read-out: KRAS G13D FRET data IC50
KRAS G13D, sequence (P01116 other isoform, or with tags, fused parts or gaps G13D): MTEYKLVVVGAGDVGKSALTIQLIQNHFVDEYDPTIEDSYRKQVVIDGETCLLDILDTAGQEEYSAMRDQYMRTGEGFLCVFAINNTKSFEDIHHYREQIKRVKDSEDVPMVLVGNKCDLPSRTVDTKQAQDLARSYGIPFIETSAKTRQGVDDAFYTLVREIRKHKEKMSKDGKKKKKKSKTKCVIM
KRAS G13D, sequence (P62937 whole entry): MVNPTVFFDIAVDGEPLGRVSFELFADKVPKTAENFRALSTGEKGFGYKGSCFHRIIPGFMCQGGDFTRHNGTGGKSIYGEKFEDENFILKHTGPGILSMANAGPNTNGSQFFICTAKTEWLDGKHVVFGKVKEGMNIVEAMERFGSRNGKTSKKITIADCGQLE
Procedure, shortened: (§1)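 TR-FRET read after 1.5 h with 10 nM anti-His Eu-W1024 and 50 nM anti-GST APC, following 3 h at 25 °C of GMPPNP-loaded His6-Ras (12.5 nM), GST-BRAF RBD (50 nM) and Cyclophilin A (25 μM) with compound from 30 μM final, 10 points, 3-fold. IC50 reported; pH 7.3 HEPES, 100 mM NaCl.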

[3] = molecular target: KRAS G12D (Homo sapiens (Human), UniProt P01116+P62937, G12D); assay: as above; assay type: biochemical; details: read-out: KRAS G12D FRET IC50
KRAS G12D, sequence (P01116 other isoform, or with tags, fused parts or gaps G12D): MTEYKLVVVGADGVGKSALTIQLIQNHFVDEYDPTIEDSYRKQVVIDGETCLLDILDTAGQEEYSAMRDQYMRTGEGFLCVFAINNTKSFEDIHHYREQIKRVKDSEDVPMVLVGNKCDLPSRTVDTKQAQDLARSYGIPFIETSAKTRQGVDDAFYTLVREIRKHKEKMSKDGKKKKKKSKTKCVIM
KRAS G12D, sequence (P62937 whole entry): as the sequence (P62937 whole entry) above
Procedure, shortened: as §1

[4] = molecular target: KRAS G12V (Homo sapiens (Human), UniProt P01116+P62937, G12V); assay: as above; assay type: biochemical; details: read-out: KRAS G12V FRET IC50
KRAS G12V, sequence (P01116 other isoform, or with tags, fused parts or gaps G12V): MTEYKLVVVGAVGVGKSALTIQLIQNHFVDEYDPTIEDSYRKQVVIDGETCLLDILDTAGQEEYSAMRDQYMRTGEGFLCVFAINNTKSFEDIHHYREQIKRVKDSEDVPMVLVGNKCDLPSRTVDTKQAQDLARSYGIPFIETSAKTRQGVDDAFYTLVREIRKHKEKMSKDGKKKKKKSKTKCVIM
KRAS G12V, sequence (P62937 whole entry): as the sequence (P62937 whole entry) above
Procedure, shortened: as §1

[5] = molecular target: KRAS G13C (Homo sapiens (Human), UniProt P01116+P62937, G13C); assay: as above; assay type: biochemical; details: read-out: KRAS G13C FRET IC50
KRAS G13C, sequence (P01116 other isoform, or with tags, fused parts or gaps G13C): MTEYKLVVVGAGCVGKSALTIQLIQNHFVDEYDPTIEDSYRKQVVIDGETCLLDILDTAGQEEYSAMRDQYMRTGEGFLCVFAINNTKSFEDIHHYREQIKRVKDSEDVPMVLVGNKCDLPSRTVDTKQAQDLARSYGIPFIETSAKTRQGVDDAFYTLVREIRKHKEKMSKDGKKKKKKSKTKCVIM
KRAS G13C, sequence (P62937 whole entry): as the sequence (P62937 whole entry) above
Procedure, shortened: as §1

[6] = molecular target: KRAS G12S (Homo sapiens (Human), UniProt P01116+P62937, G12S); assay: as above; assay type: biochemical; details: read-out: KRAS G12S FRET IC50
KRAS G12S, sequence (P01116 other isoform, or with tags, fused parts or gaps G12S): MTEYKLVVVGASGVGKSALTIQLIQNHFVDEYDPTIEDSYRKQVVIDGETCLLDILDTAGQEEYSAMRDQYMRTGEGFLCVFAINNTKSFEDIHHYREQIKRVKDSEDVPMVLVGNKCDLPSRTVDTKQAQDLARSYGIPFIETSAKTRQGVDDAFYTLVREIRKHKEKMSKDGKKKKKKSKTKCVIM
KRAS G12S, sequence (P62937 whole entry): as the sequence (P62937 whole entry) above
Procedure, shortened: as §1

[7] = molecular target: KRAS G12C (Homo sapiens (Human), UniProt P01116+P62937, G12C); assay: as above; assay type: biochemical; details: read-out: KRAS G12C FRET IC50
KRAS G12C, sequence (P01116-2 other isoform, or with tags, fused parts or gaps G12C): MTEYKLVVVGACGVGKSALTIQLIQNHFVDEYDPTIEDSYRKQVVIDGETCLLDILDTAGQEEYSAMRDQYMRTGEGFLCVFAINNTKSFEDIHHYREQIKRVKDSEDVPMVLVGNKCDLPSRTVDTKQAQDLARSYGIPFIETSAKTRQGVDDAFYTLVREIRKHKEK
KRAS G12C, sequence (P62937 whole entry): as the sequence (P62937 whole entry) above
Procedure, shortened: as §1

[8] = molecular target: KRAS WT (Homo sapiens (Human), UniProt P01116+P62937); assay: as above; assay type: biochemical; details: read-out: KRAS WT FRET data IC50
KRAS WT, sequence (P01116 other isoform, or with tags, fused parts or gaps): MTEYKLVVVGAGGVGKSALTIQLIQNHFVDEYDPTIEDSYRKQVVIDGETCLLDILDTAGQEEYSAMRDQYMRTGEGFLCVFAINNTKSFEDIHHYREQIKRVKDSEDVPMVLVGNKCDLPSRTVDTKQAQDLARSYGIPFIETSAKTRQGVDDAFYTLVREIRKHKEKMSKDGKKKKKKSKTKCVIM
KRAS WT, sequence (P62937 whole entry): as the sequence (P62937 whole entry) above
Procedure, shortened: as §1

[9] = molecular target: NRAS G12C (Homo sapiens (Human), UniProt P01111+P62937, G12C); assay: as above; assay type: biochemical; details: read-out: NRAS G12C FRET data IC50
NRAS G12C, sequence (P01111 whole entry G12C): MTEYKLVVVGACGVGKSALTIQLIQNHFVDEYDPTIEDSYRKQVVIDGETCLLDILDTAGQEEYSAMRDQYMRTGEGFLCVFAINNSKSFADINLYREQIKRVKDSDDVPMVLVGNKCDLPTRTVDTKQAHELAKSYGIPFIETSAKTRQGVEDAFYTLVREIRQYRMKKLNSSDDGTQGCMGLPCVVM
NRAS G12C, sequence (P62937 whole entry): as the sequence (P62937 whole entry) above
Procedure, shortened: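 First, 25 μM Cyclophilin A, 12.5 nM His6-Ras-GMPPNP and 50 nM GST-BRAF RBD are mixed with diluted compound at pH 7.3. Next, 3 h at 25° C. Then 10 nM anti-His Eu-W1024 plus 50 nM anti-GST allophycocyanin for 1.5 h before TR-FRET reading.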

[10] = test system: NCI-H358 cells (K-Ras G12C); assay: CellTiter-Glo cell viability, NCI-H358; assay type: cell-based, human; details: Homo sapiens, NCI-H358, 120 h, K-Ras G12C, 5-day treatment; read-out: H358 Cell Viability IC50
Procedure, shortened: (§2)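 Cells seeded, compound dispensed straight into wells, 5-day exposure. Plates brought to room temperature ~30 min, CellTiter-Glo luminescence measured. Normalized to DMSO (%), 4-parameter logistic fit.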

[11] = test system: Capan-1 cells (K-Ras G12V); assay: CellTiter-Glo cell viability, Capan-1; assay type: cell-based, human; details: Homo sapiens, CAPAN-1, 120 h, K-Ras G12V, 5-day treatment; read-out: Capan-1 Cell Viability IC50
Procedure, shortened: as §2

SMILES | EC50 [1] | IC50 [2] | IC50 [3] | IC50 [4] | IC50 [5] | IC50 [6] | IC50 [7] | IC50 [8] | IC50 [9] | IC50 [10] | IC50 [11]
CCn1c(-c2cnccc2COC)c2c3cc(ccc31)-c1cc(O)cc(c1)C[C@H](NC(=O)[C@@H](NC(=O)c1ncco1)C(C)C)C(=O)N1CCC[C@H](N1)C(=O)OCC(C)(C)C2 [Compound A56] | < 5000 nM | 1000 to 10000 nM | > 10000 nM | 1000 to 10000 nM | 1000 to 10000 nM | 1000 to 10000 nM | 1000 to 10000 nM | 1000 to 10000 nM | 1000 to 10000 nM | > 10000 nM | 
CCn1c(-c2cnccc2COC)c2c3cc(ccc31)-c1cc(O)cc(c1)C[C@H](NC(=O)[C@H](C(C)C)N(C)C(=O)O[C@@H]1CCOC1)C(=O)N1CCC[C@H](N1)C(=O)OCC(C)(C)C2 [Compound A82] |  | 1000 to 10000 nM | 1000 to 10000 nM | 1000 to 10000 nM | 100 to 1000 nM | 1000 to 10000 nM | 100 to 1000 nM | 100 to 1000 nM | 1000 to 10000 nM | 1000 to 10000 nM | 1000 to 10000 nM
CCn1c(-c2cccnc2[C@H](C)OC)c2c3cc(ccc31)-c1cc(O)cc(c1)C[C@H](NC(=O)[C@H](C(C)C)N(C)C(=O)[C@H]1[C@@H]3CNC[C@@H]31)C(=O)N1CCC[C@H](N1)C(=O)OCC(C)(C)C2 [Compound A163] |  | 10 to 100 nM | 100 to 1000 nM | 1000 to 10000 nM | 100 to 1000 nM | 100 to 1000 nM | 100 to 1000 nM | 100 to 1000 nM | 100 to 1000 nM | 1000 to 10000 nM | > 10000 nM
CCn1c(-c2cccnc2[C@H](C)OC)c2c3cc(ccc31)-c1cc(O)cc(c1)C[C@H](NC(=O)[C@H](C(C)C)N(C)C(=O)[C@H]1CCN(C(=O)CCc3ccccc3)C1)C(=O)N1CCC[C@H](N1)C(=O)OCC(C)(C)C2 [Compound A201] |  | 100 to 1000 nM | 100 to 1000 nM | 10 to 100 nM | 10 to 100 nM | 100 to 1000 nM | 10 to 100 nM | 100 to 1000 nM | 10 to 100 nM | 100 to 1000 nM | 100 to 1000 nM
CCn1c(-c2ccccc2[C@H](C)OC)c2c3cc(ccc31)-c1csc(n1)C[C@H](NC(=O)[C@H](C(C)C)N(C)C(=O)[C@H]1CCN(C(=O)OC3COC3)C1)C(=O)N1CCC[C@H](N1)C(=O)OCC(C)(C)C2 [Compound A203] |  | 1000 to 10000 nM | > 10000 nM | 1000 to 10000 nM | 1000 to 10000 nM | 1000 to 10000 nM | 1000 to 10000 nM | 1000 to 10000 nM | 1000 to 10000 nM | 100 to 1000 nM | 100 to 1000 nM
CCn1c(-c2cccnc2[C@H](C)OC)c2c3cc(ccc31)-c1cc(O)cc(c1)C[C@H](NC(=O)[C@H](C(C)C)N(C)C(=O)C1CCC1)C(=O)N1CCC[C@H](N1)C(=O)OCC(C)(C)C2 [Compound A218] |  | 100 to 1000 nM | 100 to 1000 nM | 10 to 100 nM | 10 to 100 nM | 10 to 100 nM | 10 to 100 nM | 10 to 100 nM | 10 to 100 nM | 10 to 100 nM | 10 to 100 nM
CCn1c(-c2cccnc2[C@H](C)OC)c2c3cc(ccc31)-c1cc(O)cc(c1)C[C@H](NC(=O)[C@H](C(C)C)N(C)C(=O)C1CC1)C(=O)N1CCC[C@H](N1)C(=O)OCC(C)(C)C2 [Compound A224] |  | 10 to 100 nM | 100 to 1000 nM | 10 to 100 nM | 10 to 100 nM | 10 to 100 nM | 10 to 100 nM | 10 to 100 nM | 10 to 100 nM | 10 to 100 nM | 10 to 100 nM
CCn1c(-c2cccnc2[C@H](C)OC)c2c3cc(ccc31)-c1cc(O)cc(c1)C[C@H](NC(=O)[C@H](C(C)C)N(C)C(=O)[C@H]1CCCO1)C(=O)N1CCC[C@H](N1)C(=O)OCC(C)(C)C2 [Compound A240] |  | 100 to 1000 nM | 100 to 1000 nM | 100 to 1000 nM | 10 to 100 nM | 100 to 1000 nM | 10 to 100 nM | 100 to 1000 nM | 10 to 100 nM | 10 to 100 nM | 10 to 100 nM
CCn1c(-c2cccnc2[C@H](C)OC)c2c3cc(ccc31)-c1cc(O)cc(c1)C[C@H](NC(=O)[C@H](C(C)C)N(C)C(=O)[C@H]1CCCCNC1)C(=O)N1CCC[C@H](N1)C(=O)OCC(C)(C)C2 [Compound A242] |  | 10 to 100 nM | 10 to 100 nM | 100 to 1000 nM | 10 to 100 nM | 10 to 100 nM | 10 to 100 nM | 10 to 100 nM | 10 to 100 nM | 10 to 100 nM | 100 to 1000 nM
CCn1c(-c2cccnc2[C@H](C)OC)c2c3cc(ccc31)-c1csc(n1)C[C@H](NC(=O)[C@H](C(C)C)N(C)C(=O)[C@H]1CCN(C(C)=O)C1)C(=O)N1CCC[C@H](N1)C(=O)OCC(C)(C)C2 [Compound A244] |  | > 10000 nM | > 10000 nM | 1000 to 10000 nM | 1000 to 10000 nM | 1000 to 10000 nM | 1000 to 10000 nM | 1000 to 10000 nM | 1000 to 10000 nM | 1000 to 10000 nM | 100 to 1000 nM

More lines, main results first:

EC50 [1] | IC50 [2] | IC50 [3] | IC50 [4] | IC50 [5] | IC50 [6] | IC50 [7] | IC50 [8] | IC50 [9] | IC50 [10] | SMILES | IC50 [11]
 | 10 to 100 nM | 10 to 100 nM | 10 to 100 nM | 10 to 100 nM | 10 to 100 nM | 10 to 100 nM | 10 to 100 nM | 10 to 100 nM | 10 to 100 nM | CCn1c(-c2cccnc2[C@H](C)OC)c2c3cc(ccc31)-c1cc(O)cc(c1)C[C@H](NC(=O)[C@H](C(C)C)N(C)C(=O)C1Cc3nccn3C1)C(=O)N1CCC[C@H](N1)C(=O)OCC(C)(C)C2 (stereo partly drawn) [Compound A249] | 100 to 1000 nM
 | 1000 to 10000 nM | > 10000 nM | 1000 to 10000 nM | 100 to 1000 nM | 1000 to 10000 nM | 1000 to 10000 nM | 1000 to 10000 nM | 1000 to 10000 nM | 1000 to 10000 nM | CCn1c(-c2cnccc2COC)c2c3cc(ccc31)-c1cc(O)cc(c1)C[C@H](NC(=O)C(C)C1CCOCC1)C(=O)N1CCC[C@H](N1)C(=O)OCC(C)(C)C2 (stereo partly drawn) [Compound A258] | > 10000 nM
 | 1000 to 10000 nM | 1000 to 10000 nM | 1000 to 10000 nM | 1000 to 10000 nM | 1000 to 10000 nM | 1000 to 10000 nM | 1000 to 10000 nM | 1000 to 10000 nM | 10 to 100 nM | CCn1c(-c2cccnc2[C@H](C)OC)c2c3cc(ccc31)-c1csc(n1)C[C@H](NC(=O)[C@H](C(C)C)N(C)C(=O)N1CCN(C)CC13CC3)C(=O)N1CCC[C@H](N1)C(=O)OCC(C)(C)C2 [Compound A307] | 100 to 1000 nM
 | 1000 to 10000 nM | 1000 to 10000 nM | 1000 to 10000 nM | 1000 to 10000 nM | 1000 to 10000 nM | 100 to 1000 nM | 100 to 1000 nM | 100 to 1000 nM | 100 to 1000 nM | CCn1c(-c2cccnc2[C@H](C)OC)c2c3cc(ccc31)-c1csc(n1)C[C@H](NC(=O)[C@H](C(C)C)N(C)C(=O)N1CC3CCC1CN3C)C(=O)N1CCC[C@H](N1)C(=O)OCC(C)(C)C2 [Compound A308] | 100 to 1000 nM
 | 100 to 1000 nM | 1000 to 10000 nM | 100 to 1000 nM | 100 to 1000 nM | 100 to 1000 nM | 100 to 1000 nM | 100 to 1000 nM | 100 to 1000 nM | 10 to 100 nM | CCn1c(-c2cccnc2[C@H](C)OC)c2c3cc(ccc31)-c1csc(n1)C[C@H](NC(=O)[C@H](C(C)C)N(C)C(=O)N1CC(N(C)C(C)C)C1)C(=O)N1CCC[C@H](N1)C(=O)OCC(C)(C)C2 [Compound A318] | 10 to 100 nM
 | 10 to 100 nM | 10 to 100 nM | 100 to 1000 nM |  | 10 to 100 nM | 10 to 100 nM | 10 to 100 nM | 10 to 100 nM | 100 to 1000 nM | CCn1c(-c2cccnc2[C@H](C)OC)c2c3cc(ccc31)-c1cc(O)cc(c1)C[C@H](NC(=O)[C@H](C(C)C)N(C)C(=O)[C@H]1CCN(C(=O)C(C)(C)NC)C1)C(=O)N1CCC[C@H](N1)C(=O)OCC(C)(C)C2 [Compound A381] | 1000 to 10000 nM
